{"source": "patent US20220184083A1", "about": "“USE OF AN AGENT CAPABLE OF INHIBITING THE ACTIVATION OF MAIT CELLS FOR THE TREATMENT OF OBESITY AND OBESITY-RELATED DISORDERS” (INSERM (INSTITUT NATIONAL DE LA SANTÉ ET DE LA RECHERCH …, priority 2019, published 2022)", "assay_type_in_all_cases": "in vivo", "key": {"MAIT cells": {"test_system": "MAIT cells", "test": "Intracellular staining of MAIT cells for IL-17A in ileum and visceral adipose tissue", "conditions": "Vα19+/− mice, Ac-6-FP treated vs control (PBS)", "source_text": "FIG. 3: Intra cellular staining of MAIT cells for IL-17A. Frequency of IL-17A positive MAIT cells in ileum and visceral adipose tissue from Vαl9+/− control (PBS) and Vαl9+/− Ac-6-FP treated mice."}, "Vαl9^+/− mice fed HFD": {"test_system": "Vαl9^+/− mice fed HFD", "test": "ITT, OGTT and weight gain in Vαl9+/− mice on high fat diet treated with Ac-6-FP", "source_text": "FIG. 2: Ac-6-FP treatment during HFD improved metabolic parameters. Vαl9^+/− mice fed during 6 weeks of HFD were then giving water containing 50 nm/ml of Ac-6-FP (Acetyl-6-formylpterin) (n=8) or PBS (n=7) for 8 weeks and IP injected, twice a week, 50 nm of Ac-6-FP or PBS. (A) ITT and OGTT in Vαl9^+/− Ac-6-FP-treated mice and Vαl9^+/− control mice. (B) Percentage of weight gain of Ac-6-FP-treated Vαl9^+/− mice and Vαl9^+/− control mice."}, "[1]": {"test_system": "visceral adipose tissue macrophages", "test": "Frequency of M1 and M2 macrophages in visceral adipose tissue", "conditions": "Vαl9+/− mice, treated vs non-treated", "source_text": "FIG. 4: Frequency of MI-macrophages (CD206−CD11c+) and M2-macrophages (CD206+CD11c−) among total macrophages and M1/M2 ratio in visceral adipose tissue from Vαl9+/− Ac-6-FP treated mice and their controls."}, "MR1−/− mice": {"test_system": "MR1−/− mice", "test": "ITT and OGTT at 12 weeks of HFD in MR1−/− mice treated with Ac-6-FP", "conditions": "Ac-6-FP treated vs controls", "source_text": "FIG. 5: Insulin Tolerance Test (ITT) and Oral Glucose Tolerance Test (OGTT) at 12 weeks of High Fat Diet (HFD) in MR1−/− Ac-6-FP treated mice and their respective controls."}}, "data": [{"smiles": "CC(=O)Nc1nc2ncc(C=O)nc2c(=O)[nH]1", "note": "[Ac-6-FP, acetyl-6-formylpterin]", "values": [{"measurement": "production of IL-17A by MAIT cells", "setting": "MAIT cells; ileum", "result": "decreased production"}, {"measurement": "production of IL-17A by MAIT cells", "setting": "MAIT cells; visceral adipose tissue", "result": "decreased production"}, {"measurement": "insulin sensitivity", "setting": "Vαl9^+/− mice fed HFD; Ac-6-FP treatment during high fat diet (HFD), obese mice", "result": "improved"}, {"measurement": "metabolic parameters (ITT, OGTT, percentage of weight gain)", "setting": "Vαl9^+/− mice fed HFD; Vαl9+/− mice, 6 weeks HFD, then water containing 50 nm/ml Ac-6-FP for 8 weeks plus IP 50 nm twice a week, vs PBS", "result": "improved"}, {"measurement": "frequency of M1-like macrophages (pro-inflammatory, CD206−CD11c+)", "setting": "[1]", "result": "decreased frequency"}, {"measurement": "frequency of M2-like macrophages (anti-inflammatory, CD206+CD11c−)", "setting": "[1]", "result": "increased frequency"}, {"measurement": "glucose tolerance (OGTT)", "setting": "MR1−/− mice", "result": "did not have any effect"}, {"measurement": "insulin sensitivity (ITT)", "setting": "MR1−/− mice", "result": "did not have any effect"}]}]}
